The values below come from PubChem BioAssay AID463235 (The Scripps Research Institute Molecular Screening Center, 2010).

Calls of active or inactive are those of the source. How the calls were made is not given here.

The assay in a line: HCV RNA replicon replication inhibition, late-stage follow-up, HCV NS3 helicase inhibitor project, cell-based, luminescence (AID 463235). The settings on record: HCV replicon cells, RNA blot hybridization, 3 days; for IC90: measured here: 90% replicon inhibition.

As usually defined, the IC50 is the concentration that gives 50% inhibition. Broadly, the IC90 is the concentration needed for an effect of 90%. Lower therefore signals an effect from little substance. As for `COc1cccc(-n2c(SCc3cc(=O)oc4cc(O)c(O)cc34)nc3ccccc3c2=O)c1`, the IC50 was > 10 µM (inactive) and the IC90 was greater than 10 µM.
Taken in the same sequence, the figures for `COc1ccc(C=NNC(=O)c2cc(O)c(O)c(O)c2)cc1COc1ccc(C(=O)OCC(C)C)cc1` were > 10 µM (inactive) and greater than 10 µM.
Regarding `CCCCCOc1ccc(C2C(C(=O)c3ccc(C)o3)=C(O)C(=O)N2c2cc(C)on2)cc1` (centres undefined), the IC50 is > 10 µM (inactive) and the IC90 was greater than 10 µM.
Turning to `Cc1ccc(C(=O)C2=C(O)C(=O)N(Cc3ccco3)C2c2cccc(Cl)c2)o1` (centres undefined), the IC50 is > 10 µM (inactive) and the IC90 was greater than 10 µM.
In the case of `CCOc1cccc(C2C(C(=O)c3ccc(C)o3)=C(O)C(=O)N2Cc2ccccc2)c1` (centres undefined), the IC50 was > 10 µM (inactive) and the IC90 was greater than 10 µM.
On to `Cc1cc(N2C(=O)C(O)=C(C(=O)c3ccc(C)o3)C2c2ccc(OCc3ccccc3)cc2)no1` (centres undefined), for which the IC50 was > 10 µM (inactive) and the IC90 is greater than 10 µM.
Consider `COc1cc(C2C(C(=O)c3ccc(C)o3)=C(O)C(=O)N2c2cc(C)on2)ccc1OCc1ccccc1` (centres undefined), for which the IC50 is > 10 µM (inactive) and the IC90 is greater than 10 µM.
